Data reported in PMC7186572, “Functional Identification and Structural Analysis of a New Lipoate Protein Ligase in Mycoplasma hyopneumoniae” (Frontiers in Cellular and Infection Microbiology, 2020).

Key:
Mhp-Lpl [1] = molecular target: T1, Mhp-Lpl (Mesomycoplasma hyopneumoniae, UniProt Q4AA29); assay: western blot of GcvH lipoylation with anti-lipoic acid antibody; assay type: biochemical; conditions: 1 mM lipoic acid, 5 mM ATP, 1 mM MgCl2, 5 mM DTT, 20 μM apo Mhp H as acceptor, pH 7.0, 37 °C, 4 h
T1 construct: gene lplA-1; full length, 343 residues, C-terminal His tag, pET32a NdeI/XhoI, synthetic E. coli codon-optimised gene (TGA to TGG), expressed in E. coli BL21(DE3), about 40 kDa
T1 sequence (Q4AA29 1-342 limits assumed): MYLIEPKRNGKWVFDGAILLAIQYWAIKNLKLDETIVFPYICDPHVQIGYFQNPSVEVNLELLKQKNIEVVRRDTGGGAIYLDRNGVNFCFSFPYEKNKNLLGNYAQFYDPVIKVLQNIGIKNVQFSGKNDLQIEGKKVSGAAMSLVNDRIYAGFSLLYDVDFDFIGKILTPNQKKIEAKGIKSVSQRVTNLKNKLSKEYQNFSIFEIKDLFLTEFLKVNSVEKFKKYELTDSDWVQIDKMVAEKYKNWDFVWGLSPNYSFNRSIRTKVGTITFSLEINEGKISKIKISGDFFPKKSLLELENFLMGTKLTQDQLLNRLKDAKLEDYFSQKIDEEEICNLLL

[2] = molecular target: T2, large domain of Mhp-Lpl (ML) (Mesomycoplasma hyopneumoniae, UniProt Q4AA29); assay: as above; assay type: biochemical; conditions: 1 mM lipoic acid, 5 mM ATP, 1 mM MgCl2, 5 mM DTT, 20 μM apo Mhp H as acceptor, pH 7.0, 37 °C, 4 h
T2 construct: gene lplA-1; large N-terminal domain, residues 1-254, C-terminal His tag, pET32a, expressed in E. coli BL21(DE3)
T2 sequence (Q4AA29 1-256 limits assumed): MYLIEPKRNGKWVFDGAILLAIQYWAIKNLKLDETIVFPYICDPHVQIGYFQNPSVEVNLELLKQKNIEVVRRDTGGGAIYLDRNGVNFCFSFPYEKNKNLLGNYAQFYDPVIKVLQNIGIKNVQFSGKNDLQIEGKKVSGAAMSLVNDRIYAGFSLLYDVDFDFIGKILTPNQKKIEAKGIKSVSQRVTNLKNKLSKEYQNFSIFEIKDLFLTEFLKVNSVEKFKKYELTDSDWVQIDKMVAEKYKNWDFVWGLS

E. coli LplA = molecular target: T3, E. coli LplA (Escherichia coli, UniProt P32099); assay: as above; assay type: biochemical; conditions: 1 mM lipoic acid, 5 mM ATP, 1 mM MgCl2, 5 mM DTT, 20 μM apo E. coli GcvH as acceptor, pH 7.0, 37 °C, 4 h
T3 construct: full length, C-terminal His tag, pET32a NdeI/XhoI, expressed in E. coli BL21(DE3)
T3 sequence (P32099 2-338): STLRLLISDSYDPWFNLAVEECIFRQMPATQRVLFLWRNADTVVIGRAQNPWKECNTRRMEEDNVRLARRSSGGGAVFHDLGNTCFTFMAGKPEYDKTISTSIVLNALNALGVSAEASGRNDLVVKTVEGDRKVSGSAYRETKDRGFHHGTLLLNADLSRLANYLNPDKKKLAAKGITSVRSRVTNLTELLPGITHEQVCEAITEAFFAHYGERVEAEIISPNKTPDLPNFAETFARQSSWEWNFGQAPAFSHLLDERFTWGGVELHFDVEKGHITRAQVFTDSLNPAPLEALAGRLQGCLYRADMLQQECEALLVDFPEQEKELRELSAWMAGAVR

Mhp-Lpl [3] = molecular target: T1, Mhp-Lpl; assay: X-ray crystallography, […] Å; assay type: binding; conditions: enzyme reacted with ATP and lipoic acid, then further purified and crystallised; partial occupancy; active site; reaction intermediate; an unidentified AMP-fatty acid co-purifies from E. coli

| Structure (SMILES) | western blot of GcvH lipoylation with anti-lipoic acid antibody (Mhp-Lpl [1]) | western blot of GcvH lipoylation with anti-lipoic acid antibody [2] | western blot of GcvH lipoylation with anti-lipoic acid antibody (E. coli LplA) | X-ray crystallography, 2.45 Å (Mhp-Lpl [3]) |
| --- | --- | --- | --- | --- |
| O=C(O)CCCC[C@@H]1CCSS1 (racemic) [lipoic acid] | lipoic acid was successfully transferred to the Mhp H protein by the MHP_RS01680-encoded protein | the large domain is able to catalyze Mhp H lipoylation | E. coli LplA could successfully transfer lipoic acid to E. coli GcvH |  |
| Nc1ncnc2c1ncn2[C@@H]1O[C@H](COP(=O)(O)OP(=O)(O)OP(=O)(O)O)[C@@H](O)[C@H]1O [ATP] | Mhp-Lpl catalyzes the ATP-dependent activation of lipoate to lipoyl-AMP | including activation of lipoic acid with ATP to form lipoyl-AMP |  |  |
| Nc1ncnc2c1ncn2[C@@H]1O[C@H](COP(=O)(O)OC(=O)CCCC[C@@H]2CCSS2)[C@@H](O)[C@H]1O [lipoyl-AMP] |  |  |  | lipoyl-AMP could be modeled into the density, despite its partial occupancy |
